In paper PMC12057046, “Elucidation of short linear motif-based interactions of the MIT and rhodanese domains of the ubiquitin-specific protease 8” (Biology Direct, 2025):

Legend:
[1] = target: T1, USP8 Rhod domain (Homo sapiens, UniProt P40818); experiment: ProP-PD selection against USP8 Rhod domain; assay type: binding; settings: for NGS counts (%): ProP-PD, human disorderome library, GST-tagged Rhod bait, four rounds of selection, Fig. 3A; for max_counts: Total NGS counts; for Counts: fraction of NGS counts for a selection; for Promiscuity: number of baits selections where the peptide has been observed, calculated on the domain level; for Replicates: number of screens against the bait protein in which the peptide has been found; for Specificity: proportion for the current bait of the total NGS read counts of the peptide for all baits screened with this library
T1 construct: USP8 Rhod (174–317) (UniProt: P40818); GST (cleaved yes); made in house; host or cells: Escherichia coli BL21-Gold (DE3)
T1 sequence (P40818 174-317): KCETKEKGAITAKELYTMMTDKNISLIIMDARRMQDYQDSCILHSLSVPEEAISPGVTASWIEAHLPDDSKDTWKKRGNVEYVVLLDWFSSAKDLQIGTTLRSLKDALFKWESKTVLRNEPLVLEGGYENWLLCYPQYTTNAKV
Procedure: We next evaluated the peptide binding of the Rhod domain by ProP-PD selections. […] (February 2025).
Four rounds of phage selections were carried out using the second generation human disorderome library or the constructed deep mutational scanning library. At least three individual replicates were used for each bait protein. 10 µg of GST-tagged proteins or GST control (diluted in PBS from the stock of proteins kept in the purification elution buffer) were immobilized in 100 µL PBS on a 96-well MaxiSorp (Nunc) plate overnight at 4 °C. The plates were incubated with blocking buffer (with 0.5% BSA in PBS) for 1 h at 4 °C followed by washing with 0.05% Tween 20 in PBS four times. The naïve phage library (10^11 CFU) was diluted in 1/5th volume PEG/NaCl (20% PEG-8000, 0.4 M NaCl) and 1X PBS, incubated on ice for 10 min and centrifuged at 10,000 [drawing 3] g for 10 min. The pellet was resuspended in the volume of PBS (100 µL/ well). The GST-coated control plate was incubated with 100 µL library per well in PBS for 1 h at 4 °C to remove non-specific binders. The supernatant was transferred to the target wells and incubated for 2 h at 4 °C. The wells were washed five times with 0.05% Tween 20 in PBS and the bound phages were eluted with 100 µL per well log-phase E. coli OmniMAX by incubating at 37° C while shaking. After 30 min, M13KO7 helper phages were added and incubated for an additional 45 min. The bacterial cultures were transferred to 1 mL 2YT supplemented with 100 µg/mL carbenicillin, 30 µg/mL kanamycin and 0.3 mM IPTG and grew overnight at 37 °C while shaking. The following day the cultures were centrifuged for 10 min at 2,000 [drawing 4] g, 4 °C. 1/10th volume of 10 [drawing 5] PBS was added to adjust the pH and heated at 65 °C for 10 min. The phage pools from each round were used as in-phages for the next round of selections.
The samples were prepared for NGS as previously described. […] The PCR products were normalized with 25 µL Mag-bind Total Pure NGS beads (Omega Biotek) and 10 µL of each eluted sample (Qiagen Elution Buffer) was pooled and cleaned-up with a PCR purification kit (Qiagen). The PCR product was confirmed by 2% agarose electrophoresis and the band was extracted with QIAquick Gel extraction Kit (Qiagen) and eluted with 30 µL TE buffer. The dsDNA was quantified using QuantiT PicoGreen dsDNA Assay Kit (Thermo Fisher) and sent for NGS (Illumina MiSeq v3, 1 × 150 bp read setup, 20% PhiX, NGI SciLifeLab facility, Sweden). The NGS data were demultiplexed, adapter regions were trimmed and sequences with an average quality of at least 20 were translated to peptide sequences. The NGS data were analysed using custom Python scripts. The total read NGS counts for each selection experiment of each peptide sequence were compiled and annotated in PepTools (https://slim.icr.ac.uk/tools/peptools/). Since ProP-PD is in essence a competition assay, the possibility of the input phage library influencing the selection outcome was explored. […] Pearson correlation coefficient and p-value were calculated using Python’s SciPy library.

[2] = target: T1, USP8 Rhod domain; experiment: SPOT array of predicted peptides from known interactors, USP8 Rhod domain; assay type: binding; settings: for Percentage (%) normalized to highest intensity and corrected for background: Rhod-Peptide screening, SPOT array of predicted peptides, KIAA1614 positive control = 100; for SPOT intensity in words: GST-tagged Rhod 150 µM, positive control KIAA1614_568 − 583, array of 42 predicted peptides
Description: The results therefore support that the USP8 Rhod domain binds to two distinct types of motifs (Fig. 4A, B). We used the motifs to scan for matching motifs in previously reported interactors using the SLiMSearch algorithm (Supplementary Table S8 A). As there was no clear match for the TET3-type motif except from only one hit, we focused on the KIAA1614-type motif. […] Both TP63 and USP21 are previously reported USP8 substrates, and the interactions may potentially contribute to substrate targeting. […] As the SHANK3 peptides (351-[…]−365 and 392-[…]−406) are closely located in the primary structure of SHANK3, it is tempting to speculate that both motifs contribute to the interactions between the full-length proteins by increasing the local concentration of binding motifs. […] Taken together, we find that the USP8 Rhod domain is a peptide binding domain that can be bound by peptides of two distinct types of motifs, with the Rx[LI]xGxxxPxxL motif and variants thereof being found in known USP8 substrates.
SPOT array alanine scanning of peptides was designed, and cellulose-bound peptides were synthesized using Fluorenylmethyloxycarbonyl (Fmoc) solid phase synthesis with a MultiPep synthesizer (INTAVIS Peptide Services, Tübingen, Germany). The membranes of predicted peptides were purchased by JPT Peptide Technologies (Berlin, Germany). The membranes were incubated with blocking buffer containing 5% skim milk in TBST (50 mM Tris, 150 mM NaCl pH 7.5, 0.05% Tween-20) for two hours at room temperature. The blocked membranes were incubated with GST-tagged proteins (100 µM for MIT domain and 150 µM for the Rhodanese domain) in blocking buffer overnight at 4 °C. After rinsed with TBST the membranes were incubated with HRP-conjugated anti-GST antibody (Cytiva, RPN1236; 1:3000 dilution) in blocking buffer for 1 h at 4 °C and subsequently rinsed with TBST to remove any excess antibody. The ECL reagent (Clarity Max Western ECL substrate, 1705062, BioRad) was used for chemiluminescence read-out with the ChemiDoc Imaging system (BioRad). The images were analysed with Fiji (ImageJ2 version 2.9.0). SLiMSearch4 was used to design the peptide arrays with known interactors predicted to contain the motifs. The background signal intensity was subtracted, and the corrected signal intensities were normalized to the positive control and presented as percentage.

Row | Substance | Percentage (%) normalized to highest intensity and corrected for background [2] [%] | other results
1 | HIWHYDEEYLPDASKP [TTBK2, Tau-tubulin kinase 2 peptide 503-518] | – | NGS counts (%) [1]: 0.06%; max_counts [1]: 76; Counts [1]: 0.0007473; Promiscuity [1]: 7; Replicates [1]: 2; Specificity [1]: 0.5152
2 | HAVSSPDPLLCSDVT | -0.0499 | –
3 | QPVYSSPRRLNCAE | 17 | –
4 | PVYSRPTVLMRAPPA | 4.31 | –
5 | SYAKRRRLAGPSGLA [SHANK3 peptide] | – | SPOT intensity in words [2]: Weaker signals
6 | YDTLIIRDYTQSSSSL [GRM5, Metabotropic glutamate receptor 5 peptide 1197-1212] | – | NGS counts (%) [1]: 0.02%; max_counts [1]: 23; Counts [1]: 0.0001477; Promiscuity [1]: 4; Replicates [1]: 2; Specificity [1]: 0.5417
7 | SSNSHRSLDGLSRTQ | 5.49 | –
8 | DPSAPPSLLLLLLAQ | 0.93 | –
9 | PGPPYPPQLMTPSKL | -0.836 | –
10 | QPNHGLALWEAKMKQL [TET3 1701-1716, Methylcytosine dioxygenase TET3 peptide, overlapping] | – | max_counts [1]: 7; Counts [1]: 0.00009459587683709846; Promiscuity [1]: 2; Replicates [1]: 3; Specificity [1]: 0.8889
11 | RALLERCLKGEGEIE | 2 | –
12 | GPSTSRILSGWEGPS | -0.117 | –
13 | GVSCYRGLTGFGSRS | 52 | –
14 | TASSLPRKLLPWEEG | -1.1 | –
15 | SWAAGPGSLLAWLIL | 1.45 | –
16 | HPNTPRGLSGWEGPS | 2.19 | –
17 | SLRSLPHQLLLQRLQ | 7 | –

Row | Substance | Percentage (%) normalized to highest intensity and corrected for background [2] [%] | other results
18 | AKPPGPGVLMIHPPG | -1.54 | –
19 | SLASVRGLQGRSMSV | 5 | –
20 | SSTSTRHLQGVEFEM | -1.73 | –
21 | SPARSSPELLPSGV | 1.56 | –
22 | DPVESRGLPGPEDDK | -0.521 | –
23 | LMNFLGDSNPFNLLRM [BCL11B, B-cell lymphoma/leukemia 11B peptide 279-294] | – | NGS counts (%) [1]: 0.58%; max_counts [1]: 421; Counts [1]: 0.006181; Promiscuity [1]: 6; Replicates [1]: 3; Specificity [1]: 0.9228
24 | IATYRRLLEGEEHRL | 5.44 | –
25 | SRSLSPTRLLSLPPD | 6.64 | –
26 | CGNQERKLEGSINDI | 11 | –
27 | AQPLTPGVLMVQPAA | -0.828 | –
28 | MPSGSRLRLVELGLGL [Random KIAA1614 Negative control] | 3.69 | –
29 | SCISEWEQKIPTYN | 6 | –
30 | TRKFSSPPPLSITK | 6 | –
31 | MAQALPWLLLWMGAG | 1.42 | –
32 | HEFSSPSHLLRTPSS | 45 | –
33 | RAB3IP82 − 95: SSPxxL containing peptide from the RAB3A interacting protein (QPVYSSPRRLNCAE) | – | SPOT intensity in words [2]: Weaker signals
34 | SLRSLPHQLLLQRLQ [SHANK3 peptide] | – | SPOT intensity in words [2]: Weaker signals
